{"source": "paper PMC6709486", "about": "“Safety, Tolerability, Pharmacokinetics, and Drug Interaction Potential of SPR741, an Intravenous Potentiator, after Single and Multiple Ascending Doses and When Combined with β-Lactam Antibiotics in Healthy Subjects” (Antimicrobial Agents and Chemotherapy, 2019)", "key": {"[1]": {"experiment": "MAD phase safety and tolerability", "type": "in vivo, human", "excerpt": "The SAD/MAD study was a phase 1, double-blind, placebo-controlled, multicohort trial. Part 1 used a SAD design according to which subjects received a single i.v. dose of SPR741. Part 2 used a MAD design in which subjects received multiple daily i.v. doses of SPR741 over a period of 14 days. The objective was to assess the safety/tolerability and PK of single and multiple ascending doses of SPR741.\n(§1) In the SAD phase, healthy volunteers were screened within 28 days prior to dosing. Subjects were admitted to the clinical facility on day −1 for up to 3 days. A single dose of SPR741 (or placebo) was administered on day 1. Following completion of all safety assessments and sampling for PK analyses, subjects were discharged on day 2. A follow-up visit occurred 5 to 7 days after day 1 dosing. In the MAD phase, all subjects were admitted to the clinical facility on day −1. Dosing commenced on the morning of day 1. Three doses were administered daily at approximately 8 (±0.5)-h intervals for a total of 14 consecutive days. The last dose was administered on the morning of day 14. Blood and urine samples were collected for assessment of PK parameters. Subjects were discharged on day 16 following completion of all PK sample collection and safety assessments, and a follow-up visit occurred 5 to 7 days after the last dose.\nThe MAD phase of the study began after safety and tolerability were confirmed in cohort 5, and the appropriate dose level was established. Two subjects received placebo, and six subjects received SPR741 doses of 50, 150, 400 or 600 mg q8h for 14 days. In the first cohort of the MAD phase (50 mg q8h), two subjects (sentinels) began dosing with SPR741 or placebo 72 h prior to dosing of the remaining subjects in this cohort. The remaining six subjects were dosed only after no safety concerns were identified by the Safety Monitoring Group at 72 h. After each MAD dose cohort had completed administration of study drug and all evaluations, the Safety Monitoring Group reviewed blinded cumulative safety data (including the day 19 to 21 follow-up data) to confirm the safety and tolerability of study drug.\nFor both studies, safety assessments included clinical laboratory testing (hematology, coagulation, serum chemistry, renal chemistry, and urinalysis), vital signs (blood pressure, heart rate, body temperature, and respiratory rate), physical examination, and triplicate 12-lead ECGs. […] Adverse events were recorded at each study visit."}, "[2]": {"set-up": "species or system human", "settings": "in vivo", "experimental": "as §1"}, "clinical": {"experiment": "clinical", "set-up": "species or system human", "settings": "in vivo, iv", "excerpt": "The SAD/MAD study was a phase 1, double-blind, placebo-controlled, multicohort trial. Part 1 used a SAD design according to which subjects received a single i.v. dose of SPR741. Part 2 used a MAD design in which subjects received multiple daily i.v. doses of SPR741 over a period of 14 days. The objective was to assess the safety/tolerability and PK of single and multiple ascending doses of SPR741. In the SAD phase, healthy volunteers were screened within 28 days prior to dosing. Subjects were admitted to the clinical facility on day −1 for up to 3 days. A single dose of SPR741 (or placebo) was administered on day 1. Following completion of all safety assessments and sampling for PK analyses, subjects were discharged on day 2. A follow-up visit occurred 5 to 7 days after day 1 dosing. In the MAD phase, all subjects were admitted to the clinical facility on day −1. Dosing commenced on the morning of day 1. Three doses were administered daily at approximately 8 (±0.5)-h intervals for a total of 14 consecutive days. The last dose was administered on the morning of day 14. Blood and urine samples were collected for assessment of PK parameters. Subjects were discharged on day 16 following completion of all PK sample collection and safety assessments, and a follow-up visit occurred 5 to 7 days after the last dose. In the SAD phase, subjects were randomized to one of eight cohorts that received doses of 5, 15, 50, 100, 200, 400, 600 or 800 mg of SPR741. Within each cohort, two subjects received placebo, and six received SPR741. In cohort 1, two subjects (sentinels) were dosed with SPR741 or placebo 48 h prior to dosing of the remaining subjects. The remaining six subjects were dosed only after no safety concerns were identified in the sentinel subjects. After each dose cohort had completed administration of study drug and evaluation, a Safety Monitoring Group reviewed blinded cumulative safety data (including day 5 to day 7 follow-up data) to confirm the safety and tolerability of SPR741."}}, "note": "Peptide text beside a SMILES is read from it."}
{"smiles": "CC(=O)N[C@H](C(=O)N[C@H](CO)C(=O)N[C@H]1CCNC(=O)[C@H]([C@@H](C)O)NC(=O)[C@H](CCN)NC(=O)[C@H](CCN)NC(=O)[C@H](CC(C)C)NC(=O)[C@@H](Cc2ccccc2)NC(=O)[C@H](CCN)NC1=O)[C@@H](C)O", "note": "[SPR741] (HELM PEPTIDE1{[ac].T.[dS].[Dab].[Dab].[dF].L.[Dab].[Dab].T}$PEPTIDE1,PEPTIDE1,4:R3-10:R2$$$V2.0)", "values": [{"measurement": "deaths or severe TEAEs", "setting": "[1]; MAD", "result": "No deaths or severe TEAEs occurred"}, {"measurement": "Abdominal pain: No. (%) of subjects", "setting": "[1]; in vivo", "result": "2 (8)"}, {"measurement": "Abdominal pain: No. of events", "setting": "[1]; in vivo", "result": 2}, {"measurement": "All systemic TEAEs: No. (%) of subjects", "setting": "[1]; in vivo", "result": "24 (100)"}, {"measurement": "All systemic TEAEs: No. of events", "setting": "[1]; in vivo", "result": 178}, {"measurement": "Arthralgia: No. (%) of subjects", "setting": "[1]; in vivo", "result": "2 (8)"}, {"measurement": "Arthralgia: No. of events", "setting": "[1]; in vivo", "result": 3}, {"measurement": "Back pain: No. (%) of subjects", "setting": "[1]; in vivo", "result": "2 (8)"}, {"measurement": "Back pain: No. of events", "setting": "[1]; in vivo", "result": 2}, {"measurement": "Chest discomfort: No. (%) of subjects", "setting": "[1]; in vivo", "result": "2 (8)"}, {"measurement": "Chest discomfort: No. of events", "setting": "[1]; in vivo", "result": 2}, {"measurement": "Contusion: No. (%) of subjects", "setting": "[1]; in vivo", "result": "2 (8)"}, {"measurement": "Contusion: No. of events", "setting": "[1]; in vivo", "result": 2}, {"measurement": "CrCl on day 16", "setting": "[1]; in vivo", "result": 65, "unit": "mL/min"}, {"measurement": "Creatinine clearance decrease: No. of events", "setting": "[1]; in vivo", "result": 6}, {"measurement": "Dermatitis contact: No. of events", "setting": "[1]; in vivo", "result": 7}, {"measurement": "Diarrhea: No. of events", "setting": "[1]; in vivo", "result": 3}, {"measurement": "Dysesthesia: No. (%) of subjects", "setting": "[1]; in vivo", "result": "2 (8)"}, {"measurement": "Dysesthesia: No. of events", "setting": "[1]; in vivo", "result": 2}, {"measurement": "Headache: No. of events", "setting": "[1]; in vivo", "result": 8}, {"measurement": "Nausea: No. (%) of subjects", "setting": "[1]; in vivo", "result": "2 (8)"}, {"measurement": "Nausea: No. of events", "setting": "[1]; in vivo", "result": 2}, {"measurement": "Rhinitis: No. (%) of subjects", "setting": "[1]; in vivo", "result": "2 (8)"}, {"measurement": "Rhinitis: No. of events", "setting": "[1]; in vivo", "result": 2}, {"measurement": "catheter site erythema related to the PK cannula", "setting": "[1]; in vivo", "result": 13, "unit": "%"}, {"measurement": "catheter site pain related to the PK cannula", "setting": "[1]; in vivo", "result": 25, "unit": "%"}, {"measurement": "decline in CrCl", "setting": "[1]; in vivo", "result": 50, "unit": "%"}, {"measurement": "infusion site phlebitis, SPR741 subjects", "setting": "[1]; in vivo", "result": 3}, {"measurement": "infusion site thrombosis, SPR741 subjects", "setting": "[1]; in vivo", "result": 2}, {"measurement": "serious AE of atrial fibrillation, probably related to treatment, withdrawn", "setting": "[1]; in vivo", "result": "One subject"}, {"measurement": "infusion site reactions (site bruising, erythema, pain, phlebitis, swelling), total number", "setting": "[1]; in vivo, iv", "result": 81}, {"measurement": "fraction of the dose excreted from 0 to 24 h postdose on day 14", "setting": "[2]", "result": 139.1, "unit": "%"}, {"measurement": "Tmax", "setting": "clinical; human", "result": 1, "unit": "h"}, {"measurement": "AUC(0-inf)", "setting": "clinical; human, 5 mg", "result": 1010, "unit": "ng·h/mL"}, {"measurement": "Cmax", "setting": "clinical; human, 5 mg", "result": 370, "unit": "ng/mL"}, {"measurement": "Vd", "setting": "clinical; human, 5 mg", "result": 14.4, "unit": "L"}, {"measurement": "clearance", "setting": "clinical; human, 5 mg", "result": 83.3, "unit": "mL/min"}, {"measurement": "half-life", "setting": "clinical; human, 5 mg", "result": 2.02, "unit": "h"}, {"measurement": "AUC(0-inf)", "setting": "clinical; human, 15 mg", "result": 3090, "unit": "ng·h/mL"}, {"measurement": "Cmax", "setting": "clinical; human, 15 mg", "result": 924, "unit": "ng/mL"}, {"measurement": "Vd", "setting": "clinical; human, 15 mg", "result": 19.7, "unit": "L"}, {"measurement": "clearance", "setting": "clinical; human, 15 mg", "result": 84, "unit": "mL/min"}, {"measurement": "half-life", "setting": "clinical; human, 15 mg", "result": 2.81, "unit": "h"}, {"measurement": "AUC(0-inf)", "setting": "clinical; human, 50 mg", "result": 9740, "unit": "ng·h/mL"}, {"measurement": "Cmax", "setting": "clinical; human, 50 mg", "result": 3250, "unit": "ng/mL"}, {"measurement": "Vd", "setting": "clinical; human, 50 mg", "result": 18.4, "unit": "L"}, {"measurement": "clearance", "setting": "clinical; human, 50 mg", "result": 86.3, "unit": "mL/min"}, {"measurement": "half-life", "setting": "clinical; human, 50 mg", "result": 2.48, "unit": "h"}, {"measurement": "AUC(0-inf)", "setting": "clinical; human, 100 mg", "result": 18200, "unit": "ng·h/mL"}, {"measurement": "Cmax", "setting": "clinical; human, 100 mg", "result": 6010, "unit": "ng/mL"}, {"measurement": "Vd", "setting": "clinical; human, 100 mg", "result": 20.6, "unit": "L"}, {"measurement": "clearance", "setting": "clinical; human, 100 mg", "result": 92.5, "unit": "mL/min"}, {"measurement": "half-life", "setting": "clinical; human, 100 mg", "result": 2.57, "unit": "h"}, {"measurement": "AUC(0-inf)", "setting": "clinical; human, 200 mg", "result": 37300, "unit": "ng·h/mL"}, {"measurement": "Cmax", "setting": "clinical; human, 200 mg", "result": 13400, "unit": "ng/mL"}, {"measurement": "Vd", "setting": "clinical; human, 200 mg", "result": 20.3, "unit": "L"}, {"measurement": "clearance", "setting": "clinical; human, 200 mg", "result": 91, "unit": "mL/min"}, {"measurement": "half-life", "setting": "clinical; human, 200 mg", "result": 2.62, "unit": "h"}, {"measurement": "AUC(0-inf)", "setting": "clinical; human, 400 mg", "result": 82200, "unit": "ng·h/mL"}, {"measurement": "Cmax", "setting": "clinical; human, 400 mg", "result": 26000, "unit": "ng/mL"}, {"measurement": "Vd", "setting": "clinical; human, 400 mg", "result": 24.5, "unit": "L"}, {"measurement": "clearance", "setting": "clinical; human, 400 mg", "result": 81.5, "unit": "mL/min"}, {"measurement": "half-life", "setting": "clinical; human, 400 mg", "result": 3.47, "unit": "h"}, {"measurement": "AUC(0-inf)", "setting": "clinical; human, 600 mg", "result": 133000, "unit": "ng·h/mL"}, {"measurement": "Cmax", "setting": "clinical; human, 600 mg", "result": 38000, "unit": "ng/mL"}, {"measurement": "Vd", "setting": "clinical; human, 600 mg", "result": 24.6, "unit": "L"}, {"measurement": "clearance", "setting": "clinical; human, 600 mg", "result": 77, "unit": "mL/min"}, {"measurement": "half-life", "setting": "clinical; human, 600 mg", "result": 3.76, "unit": "h"}, {"measurement": "AUC(0-inf)", "setting": "clinical; human, 800 mg", "result": 190000, "unit": "ng·h/mL"}, {"measurement": "Cmax", "setting": "clinical; human, 800 mg", "result": 52600, "unit": "ng/mL"}, {"measurement": "Vd", "setting": "clinical; human, 800 mg", "result": 21.2, "unit": "L"}, {"measurement": "clearance", "setting": "clinical; human, 800 mg", "result": 70.8, "unit": "mL/min"}, {"measurement": "half-life", "setting": "clinical; human, 800 mg", "result": 3.46, "unit": "h"}, {"measurement": "time of peak mean plasma concentration", "setting": "clinical", "result": "approximately 1 h"}]}
